Assay results published in patent publication US10004701B2, “Methods and compositions for treating infection” (UNIVERSITY OF ROCHESTER, priority 2012, dated 2018).
Counter-ions that a name gives are not always drawn. Like-named read-outs stand apart in the source and are kept apart here.

Key:
Assay in all cases: AK assay 384-well format, Prestwick library screening
E. faecium = assay type: cell-based, Enterococcus faecium; settings: 50 μM final drug concentration; for fold induction at 50 µM: Enterococcus faecium, 3 h
E. coli = assay type: cell-based, Escherichia coli; settings: 50 μM final drug concentration; for fold induction at 50 µM: Escherichia coli, 3 h
E. cloacae = assay type: cell-based, Enterobacter cloacae; settings: 50 μM final drug concentration; for fold induction at 50 µM: Enterobacter cloacae, 3 h
[1] = test system: A. baumannii strain 98-37-09; assay type: cell-based, Acinetobacter baumannii; settings: 50 μM final drug concentration; for fold induction at 50 µM: Acinetobacter baumannii, 983709, 3 h
P. aeruginosa = assay type: cell-based, Pseudomonas aeruginosa; settings: 50 μM final drug concentration; for fold induction at 50 µM: Pseudomonas aeruginosa, 3 h
K. pneumoniae = assay type: cell-based, Klebsiella pneumoniae; settings: 50 μM final drug concentration; for fold induction at 50 µM: Klebsiella pneumoniae, 3 h
[2] = test system: S. aureus strain USA300-0114; assay type: cell-based, Staphylococcus aureus; settings: 50 μM final drug concentration; for fold induction at 50 µM: Staphylococcus aureus, USA300, 3 h
[3] = planktonic E. faecium, positive cutoff 3-fold increase, read-out: AK-based Prestwick library screening result, E. faecium (fold increase in extracellular AK activity)
[4] = planktonic E. coli, positive cutoff 3-fold increase, read-out: AK-based Prestwick library screening result, E. coli (fold increase in extracellular AK activity)
[5] = planktonic E. cloacae, positive cutoff 3-fold increase, read-out: AK-based Prestwick library screening result, E. cloacae (fold increase in extracellular AK activity)
[6] = planktonic A. baumannii, positive cutoff 3-fold increase, read-out: AK-based Prestwick library screening result, A. baumannii (fold increase in extracellular AK activity)
[7] = planktonic P. aeruginosa, positive cutoff 3-fold increase, read-out: AK-based Prestwick library screening result, P. aeruginosa (fold increase in extracellular AK activity)
[8] = planktonic K. pneumoniae, positive cutoff 3-fold increase, read-out: AK-based Prestwick library screening result, K. pneumoniae (fold increase in extracellular AK activity)
[9] = planktonic S. aureus, positive cutoff 3-fold increase, read-out: AK-based Prestwick library screening result, S. aureus (fold increase in extracellular AK activity)
[10] = cutoff for positive-scoring molecules 3-fold increase, read-out: AK-based Prestwick Library Screening Results, E. faecium (fold increase in extracellular AK activity)
[11] = cutoff for positive-scoring molecules 3-fold increase, read-out: AK-based Prestwick Library Screening Results, E. coli (fold increase in extracellular AK activity)
[12] = cutoff for positive-scoring molecules 3-fold increase, read-out: AK-based Prestwick Library Screening Results, E. cloacae (fold increase in extracellular AK activity)
[13] = cutoff for positive-scoring molecules 3-fold increase, read-out: AK-based Prestwick Library Screening Results, A. baumannii (fold increase in extracellular AK activity)
[14] = cutoff for positive-scoring molecules 3-fold increase, read-out: AK-based Prestwick Library Screening Results, P. aeruginosa (fold increase in extracellular AK activity)
[15] = cutoff for positive-scoring molecules 3-fold increase, read-out: AK-based Prestwick Library Screening Results, K. pneumoniae (fold increase in extracellular AK activity)
[16] = cutoff for positive-scoring molecules 3-fold increase, read-out: AK-based Prestwick Library Screening Results, S. aureus (fold increase in extracellular AK activity)

CO[C@H]1/C=C/O[C@@]2(C)Oc3c(C)c(O)c4c(c3C2=O)C2=NC3(CCN(CC(C)C)CC3)NC2=C(NC(=O)/C(C)=C\C=C\[C@H](C)[C@H](O)[C@@H](C)[C@@H](O)[C@@H](C)[C@H](OC(C)=O)[C@@H]1C)C4=O [Rifabutin]
fold induction at 50 µM (E. faecium; [3]): 1.2 | fold induction at 50 µM (E. coli; [4]): 1.3 | fold induction at 50 µM (E. cloacae; [5]): 1.6 | fold induction at 50 µM [1, 6]: 3.3 | fold induction at 50 µM (P. aeruginosa; [7]): 0.6 | fold induction at 50 µM (K. pneumoniae; [8]): 1.3 | fold induction at 50 µM [2, 9]: 0.7

CO[C@H]1/C=C/O[C@@]2(C)Oc3c(C)c(O)c4c(O)c(c(/C=N/N5CCN(C)CC5)c(O)c4c3C2=O)NC(=O)/C(C)=C\C=C\[C@H](C)[C@H](O)[C@@H](C)[C@@H](O)[C@@H](C)[C@H](OC(C)=O)[C@@H]1C [Rifampicin]
fold induction at 50 µM (E. faecium; planktonic, cutoff for positive 3-fold increase, read-out: AK-based Prestwick Library Screening Results, E. faecium (fold increase in extracellular AK activity)): 0.8 | fold induction at 50 µM (E. coli; planktonic, cutoff for positive 3-fold increase, read-out: AK-based Prestwick Library Screening Results, E. coli (fold increase in extracellular AK activity)): 1.3 | fold induction at 50 µM (E. cloacae; planktonic, cutoff for positive 3-fold increase, read-out: AK-based Prestwick Library Screening Results, E. cloacae (fold increase in extracellular AK activity)): 1.4 | fold induction at 50 µM ([1]; planktonic, cutoff for positive 3-fold increase, read-out: AK-based Prestwick Library Screening Results, A. baumannii (fold increase in extracellular AK activity)): 3 | fold induction at 50 µM (P. aeruginosa; planktonic, cutoff for positive 3-fold increase, read-out: AK-based Prestwick Library Screening Results, P. aeruginosa (fold increase in extracellular AK activity)): 0.6 | fold induction at 50 µM (K. pneumoniae; planktonic, cutoff for positive 3-fold increase, read-out: AK-based Prestwick Library Screening Results, K. pneumoniae (fold increase in extracellular AK activity)): 0.7 | fold induction at 50 µM ([2]; planktonic, cutoff for positive 3-fold increase, read-out: AK-based Prestwick Library Screening Results, S. aureus (fold increase in extracellular AK activity)): 0.8

Nc1nc2ccc(OC(F)(F)F)cc2s1 [Riluzole hydrochloride]
fold induction at 50 µM (E. faecium; 384-well format, cutoff for positive-scoring molecules 3-fold increase, read-out: AK-based Prestwick Library Screening Results, E. faecium (increase in extracellular AK activity)): 0.3 | fold induction at 50 µM (E. coli; 384-well format, cutoff for positive-scoring molecules 3-fold increase, read-out: AK-based Prestwick Library Screening Results, E. coli (increase in extracellular AK activity)): 0.2 | fold induction at 50 µM (E. cloacae; 384-well format, cutoff for positive-scoring molecules 3-fold increase, read-out: AK-based Prestwick Library Screening Results, E. cloacae (increase in extracellular AK activity)): 0.5 | fold induction at 50 µM ([1]; 384-well format, cutoff for positive-scoring molecules 3-fold increase, read-out: AK-based Prestwick Library Screening Results, A. baumannii (increase in extracellular AK activity)): 0.2 | fold induction at 50 µM (P. aeruginosa; 384-well format, cutoff for positive-scoring molecules 3-fold increase, read-out: AK-based Prestwick Library Screening Results, P. aeruginosa (increase in extracellular AK activity)): 0.2 | fold induction at 50 µM (K. pneumoniae; 384-well format, cutoff for positive-scoring molecules 3-fold increase, read-out: AK-based Prestwick Library Screening Results, K. pneumoniae (increase in extracellular AK activity)): 0.2 | fold induction at 50 µM ([2]; 384-well format, cutoff for positive-scoring molecules 3-fold increase, read-out: AK-based Prestwick Library Screening Results, S. aureus (increase in extracellular AK activity)): 0.2

CCC(=O)[C@@]1(C)[C@H](C)C[C@H]2[C@@H]3CCC4=CC(=O)C=C[C@]4(C)[C@H]3[C@@H](O)C[C@@]21C [Rimexolone]
fold induction at 50 µM (E. faecium; [3]): 0.9 | fold induction at 50 µM (E. coli; [4]): 0.9 | fold induction at 50 µM (E. cloacae; [5]): 4.9 | fold induction at 50 µM [1, 6]: 0.9 | fold induction at 50 µM (P. aeruginosa; [7]): 1 | fold induction at 50 µM (K. pneumoniae; [8]): 0.8 | fold induction at 50 µM [2, 9]: 1.1

Cc1nc2n(c(=O)c1CCN1CCC(c3noc4cc(F)ccc34)CC1)CCCC2 [Risperidone]
fold induction at 50 µM (E. faecium; planktonic E. faecium, […], read-out: AK-based Prestwick library screening result, E. faecium (fold increase in extracellular AK activity)): 1 | fold induction at 50 µM (E. coli; planktonic E. coli, […], read-out: AK-based Prestwick library screening result, E. coli (fold increase in extracellular AK activity)): 1.1 | fold induction at 50 µM (E. cloacae; planktonic E. cloacae, […], read-out: AK-based Prestwick library screening result, E. cloacae (fold increase in extracellular AK activity)): 1.3 | fold induction at 50 µM ([1]; planktonic A. baumannii, […], read-out: AK-based Prestwick library screening result, A. baumannii (fold increase in extracellular AK activity)): 1.5 | fold induction at 50 µM (P. aeruginosa; planktonic P. aeruginosa, […], read-out: AK-based Prestwick library screening result, P. aeruginosa (fold increase in extracellular AK activity)): 1.1 | fold induction at 50 µM (K. pneumoniae; planktonic K. pneumoniae, […], read-out: AK-based Prestwick library screening result, K. pneumoniae (fold increase in extracellular AK activity)): 1.1 | fold induction at 50 µM ([2]; planktonic S. aureus, […], read-out: AK-based Prestwick library screening result, S. aureus (fold increase in extracellular AK activity)): 1.3

CC(NCCc1ccc(O)cc1)C(O)c1ccc(O)cc1 (stereo not shown) [Ritodrine hydrochloride]
fold induction at 50 µM (E. faecium; planktonic E. faecium, cutoff for positive-scoring molecules 3-fold increase, read-out: AK-based Prestwick Library Screening Results, E. faecium (increase in extracellular AK activity)): 0.9 | fold induction at 50 µM (E. coli; planktonic E. coli, cutoff for positive-scoring molecules 3-fold increase, read-out: AK-based Prestwick Library Screening Results, E. coli (increase in extracellular AK activity)): 0.8 | fold induction at 50 µM (E. cloacae; planktonic E. cloacae, cutoff for positive-scoring molecules 3-fold increase, read-out: AK-based Prestwick Library Screening Results, E. cloacae (increase in extracellular AK activity)): 0.9 | fold induction at 50 µM ([1]; planktonic A. baumannii, cutoff for positive-scoring molecules 3-fold increase, read-out: AK-based Prestwick Library Screening Results, A. baumannii (increase in extracellular AK activity)): 0.8 | fold induction at 50 µM (P. aeruginosa; planktonic P. aeruginosa, cutoff for positive-scoring molecules 3-fold increase, read-out: AK-based Prestwick Library Screening Results, P. aeruginosa (increase in extracellular AK activity)): 0.9 | fold induction at 50 µM (K. pneumoniae; planktonic K. pneumoniae, cutoff for positive-scoring molecules 3-fold increase, read-out: AK-based Prestwick Library Screening Results, K. pneumoniae (increase in extracellular AK activity)): 0.7 | fold induction at 50 µM ([2]; planktonic S. aureus, cutoff for positive-scoring molecules 3-fold increase, read-out: AK-based Prestwick Library Screening Results, S. aureus (increase in extracellular AK activity)): 0.5

COc1ccc(C2CNC(=O)C2)cc1OC1CCCC1 (stereo not shown) [Rolipram]
fold induction at 50 µM (E. faecium; [10]): 1 | fold induction at 50 µM (E. coli; [11]): 1.1 | fold induction at 50 µM (E. cloacae; [12]): 1.7 | fold induction at 50 µM [1, 13]: 1.2 | fold induction at 50 µM (P. aeruginosa; [14]): 1.2 | fold induction at 50 µM (K. pneumoniae; [15]): 1 | fold induction at 50 µM [2, 16]: 1.3

CN(C)[C@@H]1C(O)=C(C(=O)NCN2CCCC2)C(=O)[C@@]2(O)C(O)=C3C(=O)c4c(O)cccc4[C@@](C)(O)[C@H]3C[C@@H]12 [Rolitetracycline]
fold induction at 50 µM (E. faecium; [10]): 1 | fold induction at 50 µM (E. coli; [11]): 1.1 | fold induction at 50 µM (E. cloacae; [12]): 1.7 | fold induction at 50 µM [1, 13]: 1.2 | fold induction at 50 µM (P. aeruginosa; [14]): 1.1 | fold induction at 50 µM (K. pneumoniae; [15]): 1 | fold induction at 50 µM [2, 16]: 1.1

Cn1c([N+](=O)[O-])cnc1COC(N)=O [Ronidazole]
fold induction at 50 µM (E. faecium; [3]): 1.1 | fold induction at 50 µM (E. coli; [4]): 1.1 | fold induction at 50 µM (E. cloacae; [5]): 1.6 | fold induction at 50 µM [1, 6]: 1.6 | fold induction at 50 µM (P. aeruginosa; [7]): 1 | fold induction at 50 µM (K. pneumoniae; [8]): 1.7 | fold induction at 50 µM [2, 9]: 1.3

O=[N+]([O-])c1cc([As](=O)(O)O)ccc1O [Roxarsone]
AK-based Prestwick Library Screening Results, E. faecium (fold increase in extracellular AK activity) (E. faecium; […]): 0.8 | AK-based Prestwick Library Screening Results, E. coli (fold increase in extracellular AK activity) (E. coli; […]): 0.4 | AK-based Prestwick Library Screening Results, E. cloacae (fold increase in extracellular AK activity) (E. cloacae; […]): 0.5 | AK-based Prestwick Library Screening Results, A. baumannii (fold increase in extracellular AK activity) ([1]; […]): 0.5 | AK-based Prestwick Library Screening Results, P. aeruginosa (fold increase in extracellular AK activity) (P. aeruginosa; […]): 0.5 | AK-based Prestwick Library Screening Results, K. pneumoniae (fold increase in extracellular AK activity) (K. pneumoniae; […]): 0.4 | AK-based Prestwick Library Screening Results, S. aureus (fold increase in extracellular AK activity) ([2]; […]): 0.6
